Assay results taken from patent US20170190671A1, “BIS(ARYL)CATECHOL DERIVATIVES AS HERBICIDES” (E I DU PONT DE NEMOURS AND COMPANY, priority 2014, published 2017).

How the values were obtained:
Assay type in all cases: in vivo
[1] = test system: wheat (Triticum aestivum); experiment: Test A postemergence; conditions: Triticum aestivum, post-emergence, 240 h, 0 to 100 scale, read-out: Plant response rating, Wheat; for plant injury at 31 g/ha: 31 g ai/ha; for plant injury at 125 g/ha: 125 g ai/ha
Source text: (§1) Seeds of plant species selected from barnyardgrass (Echinochloa crus-galli), kochia (Kochia scoparia), ragweed (common ragweed, Ambrosia elatior), Italian ryegrass (Lolium multiflorum), large (Lg) crabgrass (Digitaria sanguinalis), giant foxtail (Setaria faberii), morningglory (Ipomoea spp.), pigweed (Amaranthus retroflexus), velvetleaf (Abutilon theophrasti), wheat (Triticum aestivum), and corn (Zea mays) were planted into a blend of loam soil and sand and treated preemergence with a directed soil spray using test chemicals formulated in a non-phytotoxic solvent mixture which included a surfactant.
(§2) At the same time, plants selected from these crop and weed species and also blackgrass (Alopecurus myosuroides), and galium (catchweed bedstraw, Galium aparine) were planted in pots containing the same blend of loam soil and sand and treated with postemergence applications of test chemicals formulated in the same manner. Plants ranged in height from 2 to 10 cm and were in the one- to two-leaf stage for the postemergence treatment. Treated plants and untreated controls were maintained in a greenhouse for approximately 10 days, after which time all treated plants were compared to untreated controls and visually evaluated for injury. Plant response ratings, summarized in Table A, are based on a 0 to 100 scale where 0 is no effect and 100 is complete control. A dash (-) response means no test result.

[2] = test system: Italian ryegrass (Lolium multiflorum); experiment: Test A postemergence; conditions: Lolium multiflorum, post-emergence, 240 h, 0 to 100 scale, read-out: Plant response rating, Ryegrass, Italian; for pest or weed control at 31 g/ha: 31 g ai/ha; for pest or weed control at 125 g/ha: 125 g ai/ha
Source text: as §1, §2

[3] = test system: blackgrass (Alopecurus myosuroides); experiment: Test A postemergence; conditions: Alopecurus myosuroides, post-emergence, 240 h, 0 to 100 scale, read-out: Plant response rating, Blackgrass; for pest or weed control at 31 g/ha: 31 g ai/ha; for pest or weed control at 125 g/ha: 125 g ai/ha
Source text: as §1, §2

[4] = test system: galium (catchweed bedstraw, Galium aparine); experiment: Test A postemergence; conditions: Galium, post-emergence, 240 h, 0 to 100 scale, read-out: Plant response rating, Galium; for pest or weed control at 31 g/ha: 31 g ai/ha; for pest or weed control at 125 g/ha: 125 g ai/ha
Source text: as §1, §2

corn (Zea mays) = experiment: Test A postemergence; conditions: Zea mays, post-emergence, 240 h, 0 to 100 scale; for Corn plant response rating (crop injury, 0 = no effect, 100 = complete kill) at 31 g/ha: 31 g ai/ha; for Corn plant response rating (crop injury, 0 = no effect, 100 = complete kill) at 125 g/ha: 125 g ai/ha
Source text: as §1, §2

[5] = test system: pigweed (Amaranthus retroflexus); experiment: Test A postemergence; conditions: Amaranthus retroflexus, post-emergence, 240 h, 0 to 100 scale, read-out: Plant response rating, Pigweed; for pest or weed control at 31 g/ha: 31 g ai/ha; for pest or weed control at 125 g/ha: 125 g ai/ha
Source text: as §1, §2

[6] = test system: ragweed (common ragweed, Ambrosia elatior); experiment: Test A postemergence; conditions: Ambrosia artemisiifolia, post-emergence, 240 h, 0 to 100 scale, read-out: Plant response rating, Ragweed; for pest or weed control at 31 g/ha: 31 g ai/ha; for pest or weed control at 125 g/ha: 125 g ai/ha
Source text: as §1, §2

[7] = test system: barnyardgrass (Echinochloa crus-galli); experiment: Test A postemergence; conditions: Echinochloa crus-galli, post-emergence, 240 h, 0 to 100 scale, read-out: Plant response rating, Barnyardgrass; for pest or weed control at 31 g/ha: 31 g ai/ha; for pest or weed control at 125 g/ha: 125 g ai/ha
Source text: as §1, §2

kochia (Kochia scoparia) [8] = experiment: Test A postemergence; conditions: Bassia scoparia, post-emergence, 240 h, 0 to 100 scale, read-out: Plant response rating, Kochia; for pest or weed control at 31 g/ha: 31 g ai/ha; for pest or weed control at 125 g/ha: 125 g ai/ha
Source text: as §1, §2

[9] = test system: giant foxtail (Setaria faberii); experiment: Test A postemergence; conditions: Setaria faberi, post-emergence, 240 h, 0 to 100 scale, read-out: Plant response rating, Foxtail, Giant; for pest or weed control at 31 g/ha: 31 g ai/ha; for pest or weed control at 125 g/ha: 125 g ai/ha
Source text: as §1, §2

[10] = test system: Italian ryegrass (Lolium multiflorum); experiment: Test A preemergence; conditions: Lolium multiflorum, pre-emergence, 240 h; for pest or weed control at 31 g/ha: 31 g ai/ha, 0 to 100 scale (0 no effect, 100 complete control), read-out: Ryegrass, Italian plant response rating; for pest or weed control at 125 g/ha: 125 g ai/ha, 0 to 100 scale, read-out: Plant response rating, Ryegrass, Italian
Source text: as §1, §2

[11] = test system: pigweed (Amaranthus retroflexus); experiment: Test A preemergence; conditions: Amaranthus retroflexus, pre-emergence, 240 h; for pest or weed control at 31 g/ha: 31 g ai/ha, 0 to 100 scale (0 no effect, 100 complete control), read-out: Pigweed plant response rating; for pest or weed control at 125 g/ha: 125 g ai/ha, 0 to 100 scale, read-out: Plant response rating, Pigweed
Source text: as §1, §2

[12] = test system: ragweed (common ragweed, Ambrosia elatior); experiment: Test A preemergence; conditions: Ambrosia artemisiifolia, pre-emergence, 240 h; for pest or weed control at 31 g/ha: 31 g ai/ha, 0 to 100 scale (0 no effect, 100 complete control), read-out: Ragweed plant response rating; for pest or weed control at 125 g/ha: 125 g ai/ha, 0 to 100 scale, read-out: Plant response rating, Ragweed
Source text: as §1, §2

[13] = test system: barnyardgrass (Echinochloa crus-galli); experiment: Test A preemergence; conditions: Echinochloa crus-galli, pre-emergence, 240 h; for pest or weed control at 31 g/ha: 31 g ai/ha, 0 to 100 scale (0 no effect, 100 complete control), read-out: Barnyardgrass plant response rating; for pest or weed control at 125 g/ha: 125 g ai/ha, 0 to 100 scale, read-out: Plant response rating, Barnyardgrass
Source text: as §1, §2

kochia (Kochia scoparia) [14] = experiment: Test A preemergence; conditions: Bassia scoparia, pre-emergence, 240 h; for pest or weed control at 31 g/ha: 31 g ai/ha, 0 to 100 scale (0 no effect, 100 complete control), read-out: Kochia plant response rating; for pest or weed control at 125 g/ha: 125 g ai/ha, 0 to 100 scale, read-out: Plant response rating, Kochia
Source text: as §1, §2

[15] = test system: giant foxtail (Setaria faberii); experiment: Test A preemergence; conditions: Setaria faberi, pre-emergence, 240 h; for pest or weed control at 31 g/ha: 31 g ai/ha, 0 to 100 scale (0 no effect, 100 complete control), read-out: Foxtail, Giant plant response rating; for pest or weed control at 125 g/ha: 125 g ai/ha, 0 to 100 scale, read-out: Plant response rating, Foxtail, Giant
Source text: as §1, §2

N#Cc1cccc(Oc2ncc(Cl)cn2)c1Oc1cccnc1 [Compound 8]
10%: pest or weed control at 31 g/ha [4] | Corn plant response rating (crop injury, 0 = no effect, 100 = complete kill) at 125 g/ha (corn (Zea mays)) | pest or weed control at 31 g/ha [5] | pest or weed control at 125 g/ha [7] | pest or weed control at 31 g/ha (kochia (Kochia scoparia) [8]) | pest or weed control at 125 g/ha [11]
30%: pest or weed control at 125 g/ha (kochia (Kochia scoparia) [8])
20%: pest or weed control at 125 g/ha [4] | pest or weed control at 125 g/ha [5]
0%: plant injury at 31 g/ha [1] | plant injury at 125 g/ha [1] | pest or weed control at 31 g/ha [2] | pest or weed control at 125 g/ha [2] | pest or weed control at 31 g/ha [3] | pest or weed control at 125 g/ha [3] | Corn plant response rating (crop injury, 0 = no effect, 100 = complete kill) at 31 g/ha (corn (Zea mays)) | pest or weed control at 31 g/ha [6] | pest or weed control at 125 g/ha [6] | pest or weed control at 31 g/ha [7] | pest or weed control at 31 g/ha [9] | pest or weed control at 125 g/ha [9] | pest or weed control at 31 g/ha [10] | pest or weed control at 125 g/ha [10] | pest or weed control at 31 g/ha [11] | pest or weed control at 31 g/ha [12] | pest or weed control at 125 g/ha [12] | pest or weed control at 31 g/ha [13] | pest or weed control at 125 g/ha [13] | pest or weed control at 31 g/ha (kochia (Kochia scoparia) [14]) | pest or weed control at 125 g/ha (kochia (Kochia scoparia) [14]) | pest or weed control at 31 g/ha [15] | pest or weed control at 125 g/ha [15]

N#Cc1cccc(Oc2ncc(F)cn2)c1Oc1ccc(Br)cn1 [Compound 9]
10%: Corn plant response rating (crop injury, 0 = no effect, 100 = complete kill) at 125 g/ha (corn (Zea mays)) | pest or weed control at 31 g/ha [9] | pest or weed control at 125 g/ha [12]
50%: pest or weed control at 31 g/ha [5] | pest or weed control at 125 g/ha [7]
20%: pest or weed control at 31 g/ha [2]
0%: plant injury at 31 g/ha [1] | Corn plant response rating (crop injury, 0 = no effect, 100 = complete kill) at 31 g/ha (corn (Zea mays)) | pest or weed control at 31 g/ha [7] | pest or weed control at 31 g/ha [10] | pest or weed control at 125 g/ha [10] | pest or weed control at 31 g/ha [12]
80%: pest or weed control at 125 g/ha [3]
30%: pest or weed control at 31 g/ha [3] | pest or weed control at 31 g/ha [6] | pest or weed control at 31 g/ha [13] | pest or weed control at 31 g/ha [15]
90%: pest or weed control at 125 g/ha [13]
70%: pest or weed control at 125 g/ha [2] | pest or weed control at 31 g/ha [4] | pest or weed control at 125 g/ha [6] | pest or weed control at 125 g/ha [9]
60%: pest or weed control at 31 g/ha (kochia (Kochia scoparia) [8])
100%: pest or weed control at 125 g/ha [4] | pest or weed control at 125 g/ha [5] | pest or weed control at 125 g/ha (kochia (Kochia scoparia) [8]) | pest or weed control at 31 g/ha [11] | pest or weed control at 125 g/ha [11] | pest or weed control at 125 g/ha (kochia (Kochia scoparia) [14]) | pest or weed control at 125 g/ha [15]
40%: plant injury at 125 g/ha [1] | pest or weed control at 31 g/ha (kochia (Kochia scoparia) [14])
